Literature values, collected in patent US8288366B2, “Formulation for hair growth” (priority 2006, dated 2012).

Test system: mice with a mutant hairless gene
Conditions: applied topically

N[C@@H](Cc1cc(I)c(Oc2ccc(O)c(I)c2)c(I)c1)C(=O)O [T3, triiodothyronine]
hair growth: stimulate hair growth
